The subject of experiment [1] is HMO6.A1 cells. Briefly: RT-PCR analysis of gene expression in agent stimulated HMO6.A1 cells. The class given is cell-based, human. Particulars: for P2Y2 receptor expression / B7-2 mRNA expression: HMO6.A1, RT-PCR; for B7-2 mRNA expression: 24 hr incubation; for Stimulated HMO6 cell expressed active substance(s): RT-PCR, agent stimulated HMO6 cells. From the text:
The information of Table E1 is provided merely as a convenience to the reader and utilizes conventional gene sequences.
Sense and antisense primers of each primer pair given by Table E1 were set at a different exon, respectively, to avoid DNA contamination. To assess the character of HMO6.A1 cells, the expression of cytokines (IL-1β, -2, -3, -4, -5, -6, -7, -8, -9, -10, -11, -12, -13, -15, and TNF-α), chemokines (macrophage inflammatory protein (MIP)-1α, MIP-1β, and monocyte chemoattractant protein (MCP)-1) was examined by RT-PCR. Total RNA was extracted using Trizol reagent (GIBCO-BRL, Gaithersburg, Md.). Complimentary DNA (cDNA) templates from each sample were prepared from 2 μg of total RNA primed with oligo dT primers (Pharmacia, Gaithersburg, Md.) using 400 units of MMLV reverse transcriptase (GIBCO-BRL) followed by 25 PCR amplification cycles (94° C. for 30 seconds, annealing at 60° C. for 60 seconds, and extension at 72° C. for 90 seconds). This cycle number allowed a linear cDNA dose-response. Glyceraldehyde-3-phosphate dehydrogenase (G3PDH) was used as a reaction standard [Ercolani et al., J. Biol. Chem. 263: 15335-15341 ([…])].
To confirm the purity of cell preparation, cDNA from microglia-enriched cultures were amplified for B7-2 (CD86, for microglia); GFAP (a cell type-specific marker for astrocytes); myelin basic protein (MBP, for oligodendrocytes); and neurofilament-M (NF-M, for neurons). For characterization of HMO6.A1 cells, mRNA expression of marker proteins specific for each cell type was also investigated. Gene expression of CD68, P2Y1 purinergic receptor (P2Y1R), P2Y2R, CXCR4 which are expressed in embryonic human microglia (HM) was also examined in HMO6.A1 cells. […] of each PCR product was analyzed by 1.5% agarose gel electrophoresis. Authentic bands were determined by selective enzyme digestion.
[…] LPS at 100 ng/ml was used in microglial cultures since LPS is a potent activator of microglia [Gebicke-Haeter et al., J. Neurosci. 9: 187-194 (1989); Suzumura et al., Brain Res. 545: 301-306 (1991)].

Experiment [2] has as its system HMO6.A1 cells. As to the kind of experiment: Fura-2 Ca2+ fluorescence in HMO6.A1 cells. The class given is cell-based, human. Particulars: ATP 100 μM; ionomycin 10 μM after ATP perfusion; n=7 cells. The procedure:
The cultured HMO6.Al cells were loaded for 25 min with the Ca^2+ indicator fura-2-acetoxymetethylester (fura-2AM). The dye was applied with pleuronic acid (both at concentrations of 1 μM) to normal physiological solution (PSS) at room temperature (20-22° C.). Following a 5 min wash in dye-free solution, the coverslips were placed on the stage of a Zeiss Axiovert inverted microscope containing a ×40 quartz objective lens. Alternating excitation wavelengths (340/380 nm) of UV light were applied at intervals of 8 s and fluorescence signals were obtained at 510 nm of emission light (bandwidth of 4 nm) from 8-20 cells in the field of view. Signals were acquired from a digital camera (DVC-1310, DVC Co., Austin, Tex.) and were processed using an imaging system (Empix, Mississauga, ON) to determine ratios of the 340 nm and 380 nm intensities which have been used as quantitative measures of fluorescence levels in this work.
All studies were done at room temperature (20-22° C.) and values obtained from multiple cells are reported as mean ±SEM with statistical significance for p≦0.05 using the Student's t-test.
The purinergic agonist ATP (at 100 μM) was applied to HMO6.A1 cells using calcium sensitive fluorescence microscopy. The results from a representative experiment are presented by FIGS. 3A and 3B which show an ATP-induced increase in [Ca^2+]i from n=7 cells. […]

Experiment [3] deals with embryonic human microglia. As to the kind of experiment: GM-CSF stimulated proliferation of embryonic human microglia. In kind it is cell-based. Particulars: GM-CSF 8 μg/ml for 9-12 days. As for the experimental part: It is also desirable that, for the last part of this time, microglia are exposed to granulocyte macrophage colony stimulating factor (GM-CSF) at final concentration of 8 ug/ml for 9-12 days with a medium change every 3 days. GM-CSF treatment stimulated proliferation of microglia results in a 3-4 fold increase in microglial population.
As illustrated by FIG. 1, an amphotropic replication-incompetent retroviral vector encoding v-myc oncogene (transcribed from mouse leukemia virus LTR plus neomycin-resistant gene transcribed from a SV40 early promotor) was used to infect human microglia inducing propagation of immortalized human microglial cell lines. This amphotropic vector, PASK 1.2, was generated using the ecotropic retroviral vector encoding v-myc (obtained from the American Type Culture Collection, Rockville, Md.) to infect PA318 amphotropic packaging cell line. Microglia were exposed to granulocyte macrophage colony stimulating factor (GM-CSF) at final concentration of 8 μg/ml for 9-12 days with medium change every 3 days. GM-CSF treatment stimulated proliferation of microglia resulting in 3-4 folds increase in population. Microglia treated with GM-CSF for 9-12 days were subjected to retrovirally mediated transduction of v-myc by PASK 1.2 construct and subsequent cloning.

The test system of experiment [4] is embryonic human microglia (HM). As to the kind of experiment: RT-PCR analysis of gene expression in embryonic human microglia (HM) after Aβ25-35/LPS. The class given is cell-based. Particulars: 6 hr.
Experiment [5] deals with HMO6.A1 cells. As to the kind of experiment: ELISA of cytokines/chemokines released from HMO6.A1 cells. Particulars: for MIP-1α amount of release / levels of IL-8 in the supernatant: HMO6.A1, 48 hours; for levels of IL-8 in the supernatant: versus non-treated controls. The class given is cell-based, human. As for the experimental part: (§1) Production of TNF-α, IL-1β, IL-6, IL-8 or MIP-1α in normal human microglial cells or HMO6.A1 cells was determined in spent culture supernatants using ELISA kits specific for human TNF-α, IL-1β, IL-6, IL-8 or MIP-1α (R&D Systems, capable of detecting TNF-α at 4.4 pg/ml, IL-1β at 1 pg/ml, IL-6 at 0.70 pg/ml, IL-8 at 10 pg/ml and MIP-1α at 10 pg/ml). At the end of each experiment, culture supernatants were collected, centrifuged, and stored at −70° C.
(§2) FIGS. 6A-6E are graphs presenting ELISA analyses of cytokines and chemokines released from normal human microglia and HMO6 immortalized human microglia cell line. Cells were plated in 6-well plates, stimulated for 48 hours with or without 20 ug/ml β-amyloid or 10 ng/ml LPS, and then cytokine/chemokine production in spent media was measured. Values represent mean±SEM from 3 experiments.
A general note: An ELISA detects its analyte on a solid surface through an enzyme-linked reagent.

In experiment [6] the test system is normal human microglial cells. Briefly: ELISA of cytokines/chemokines released from normal human microglia (HM). In kind it is cell-based. Particulars: for IL-6 levels in the culture supernatant: cell type (HM or HMO6.A1) not given; for levels of IL-8 in the supernatant: versus non-treated controls. As for the experimental part:
as §1, §2

Where [7] appears, read: HMO6, treatment time not stated.

“Also recorded” adds a separate entry of the source.

On to TNF-α, for which, in experiment [1] (setting [7]), the “Expression of MIP-1α” value is “newly induced” and the “Expression of TNF-α” value is “newly induced”. In addition, the MIP-1α expression result in experiment [1] (HMO6.A1, 24 hr treatment) is recorded as “detected; also recorded: induced”. For the same molecule, in experiment [1], the P2Y2 receptor expression entry is “induced; also recorded: expressed” and the “B7-2 mRNA expression” value is recorded as “induced; also recorded: expressed”. The TNF-α gene expression entry in experiment [1] (HMO6.A1, treatment for 4 hr) was “recognized; also recorded: induced”. The “Stimulated HMO6 cell expressed active substance(s)” value (“Stimulated HMO6 cell” for short) in experiment [1] (MIP-1α expression) is on record as “MIP-1α”. Also, in experiment [1] (TNF-α expression), the “Stimulated HMO6 cell” value was “TNF-α”.

In the case of `Nc1ncnc2c1ncn2[C@@H]1O[C@H](COP(=O)(O)OP(=O)(O)OP(=O)(O)O)[C@@H](O)[C@H]1O` [ATP], the “[Ca2+]i response” value in experiment [2] was “increase; also recorded: rapid and transient”.

For the molecule “GM-CSF: granulocyte-macrophage colony-stimulating factor (GIBCO-BRL)”, the “increase in microglial population” value in experiment [3] is 3-4 fold. In experiment [1], the P2Y2 receptor expression entry is on record as “expressed” and the “B7-2 mRNA expression” value was “not”.

For the molecule “IL-1β: Recombinant human IL-1β (10 ng/ml, R&D Systems)”, in experiment [1], the P2Y2 receptor expression entry is “expressed”, the “B7-2 mRNA expression” value is listed as “not” and the “Stimulated HMO6 cell” value is “None”.

With “NH2-GSNKGAIIGLM-COOH (H-GSNKGAIIGLM-OH) [Aβ25-35]”, in experiment [1] (HMO6.A1, 6 hr), the CXCR4 expression result is “increased”, the IL-1β expression entry was “no change”, the IL-6 expression entry is given as “no change” and the “IL-8 mRNA expression” value is “elevated”. Also, in experiment [1] (HMO6.A1, 6 hr), the IL-10 expression entry is given as “not detected”, the IL-12 expression entry was “elevated”, the “MCP mRNA expression” value is on record as “elevated” and the “MIP-1α mRNA expression” value is “not expressed”. The MIP-1β expression entry in experiment [1] (HMO6.A1, 6 hr) was “No change”. Besides, the TNF-α expression result in experiment [1] (HMO6.A1, 6 hr incubation) was “not induced”. For the same molecule, the TNF-α expression entry in experiment [1] (HMO6.A1, after 24 hr) is on record as “induced”. In addition, in experiment [1] (HMO6.A1, after 24 hr, listed as Aβ), the TNF-α expression result is “detected; also recorded: induced”. Further, the “Stimulated HMO6 cell” value in experiment [1] (Elevated IL-12 expression) is “Elevated IL-12”. Further, the “Stimulated HMO6 cell” value in experiment [1] (TNF-α expression) is given as “TNF-α”. For the same molecule, in experiment [4], the IL-1β expression result was “slightly increased”, the IL-4 expression entry is given as “not recognized”, the “IL-8 mRNA” value is on record as “up-regulated” and the IL-10 expression result was “increased”. In experiment [4], the IL-12 expression result is on record as “elevated”, the IL-13 expression result is “not recognized”, the “MCP mRNA” value is given as “up-regulated” and the “MIP-1α mRNA” value is reported as “up-regulated”. Further, in experiment [4], the “MIP-1β mRNA” value is “up-regulated” and the TNF-α expression entry is recorded as “markedly elevated”. Also, in experiment [5], the “MIP-1α amount of release” value was “very low” and the “levels of IL-8 in the supernatant” value is “greater”. The “TNF-α production (ELISA)” value in experiment [5] (HMO6.A1, 48 hours stimulation, spent media) is on record as “marked increase”. Moreover, in experiment [6] (48 hours stimulation), the “IL-6 levels in the culture supernatant” value is “not increased”. Also, in experiment [6] (HM, 48 hours), the MIP-1α levels entry is listed as “elevated” and the “levels of IL-8 in the supernatant” value is “greater”. For the same molecule, the “release of IL-1β into culture medium” value in experiment [6] (HM, 48 hours stimulation) is recorded as “demonstrated”. Also, the “TNF-α production (ELISA)” value in experiment [6] (HM, 48 hours stimulation, spent media) is given as “marked increase”.

For lipopolysaccharide [LPS], the CXCR4 expression result in experiment [1] (HMO6.A1, 6 hr) is listed as “increased”. For the same molecule, the TNF-α expression entry in experiment [1] (HMO6.A1, 6 hr incubation) is given as “not induced”. In experiment [1], the P2Y2 receptor expression entry was “expressed” and the “B7-2 mRNA expression” value is “not”. In addition, in experiment [1] (HMO6.A1, after 24 hr), the TNF-α expression entry was “induced”. Also, in experiment [5], the “MIP-1α amount of release” value was “very low” and the “levels of IL-8 in the supernatant” value is “greater”. The “IL-6 levels in the culture supernatant” value in experiment [6] (48 hours stimulation) is reported as “increased”. In experiment [6] (HM, 48 hours stimulation), the “release of IL-1β into culture medium” value is given as “demonstrated”. The “levels of IL-8 in the supernatant” value in experiment [6] (HM, 48 hours) was “greater”.

With `C[C@H](CCC(=O)O)C[C@H](C)C[C@H](C)C(=O)/C=C(\O)[C@H](C)C[C@H](C)C/C=C/[C@@H](C)[C@@H](O)[C@@H](C)[C@@H](O)C[C@@H]1CC[C@@](C)([C@H]2CC[C@@](C)([C@@H](C)O)O2)O1` [ionomycin], the “[Ca2+]i response” value in experiment [2] is “considerably larger than the ATP-induced response”.

B1: IFN-γ: recombinant human IFN-γ (500 IU/ml, LG Chem) (protein, UniProt P01579 24-161, looked up)
Interferon gamma: QDPYVKEAENLKKYFNAGHSDVADNGTLFLGILKNWKEESDRKIMQSQIVSFYFKLFKNFKDDQSIQKSVETIKEDMNVKFFNSNKKKRDDFEKLTNYSVTDLNVQRKAIHELIQVMAELSPAAKTGKRKRSQMLFRG
As for B1, in experiment [1], the P2Y2 receptor expression result is “expressed” and the “B7-2 mRNA expression” value was “not”.

The values above are taken from patent US6780641B2, “Immortalized human microglia cell line” (University of British Columbia, priority 2000, dated 2004).
